# Reference: ChEMBL document CHEMBL1201862, “PubChem BioAssay data set” (2004)
#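 Each compound was tested at five concentrations against cells in 96-well plates for 48 hours. The concentration for 50% growth inhibition is given as GI50.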 Calls of active or inactive are those of the source. Rule as the data show it: active = GI50 up to about 1.1 µM and inactive = higher.
# Legend:
# Assay in all cases: NCI tumour cell line growth inhibition, 48 h
# HCC 2998 = tested on: HCC 2998
# LXFL 529 = tested on: LXFL 529
# SK-MEL-28 = tested on: SK-MEL-28
# M19-MEL = tested on: M19-MEL
# KM-20L2 = tested on: KM-20L2
# RXF 631 = tested on: RXF 631
# HL-60 = tested on: HL-60
# HT-29 = tested on: HT-29
# TK-10 = tested on: TK-10
# NCI-H460 = tested on: NCI-H460
# HCT-15 = tested on: HCT-15
# Malme-3M = tested on: Malme-3M
# SF-268 = tested on: SF-268
# EKVX = tested on: EKVX
# SK-MEL-2 = tested on: SK-MEL-2
# OVCAR-3 = tested on: OVCAR-3
# U-251 = tested on: U-251
# SN12C = tested on: SN12C
# A498 = tested on: A498
# NCI-H23 = tested on: NCI-H23
# 786-0 = tested on: 786-0
# SNB-78 = tested on: SNB-78
# SNB-19 = tested on: SNB-19
# DLD-1 = tested on: DLD-1
# COLO 205 = tested on: COLO 205
# XF498 = tested on: XF498
# NCI-H226 = tested on: NCI-H226
# KM12 = tested on: KM12
# UACC-257 = tested on: UACC-257
# UO-31 = tested on: UO-31
# M14 = tested on: M14
# DMS-273 = tested on: DMS-273
# MOLT-4 = tested on: MOLT-4
# SNB-75 = tested on: SNB-75
# RPMI-8226 = tested on: RPMI-8226
# OVCAR-4 = tested on: OVCAR-4
# A549 = tested on: A549
# DMS-114 = tested on: DMS-114
# IGROV-1 = tested on: IGROV-1
# ACHN = tested on: ACHN
# CAKI-1 = tested on: CAKI-1
# SK-OV-3 = tested on: SK-OV-3
# UACC-62 = tested on: UACC-62
# SK-MEL-5 = tested on: SK-MEL-5
# LOX IMVI = tested on: LOX IMVI
# HOP-62 = tested on: HOP-62
# SW-620 = tested on: SW-620
# NCI-H522 = tested on: NCI-H522
# HOP-18 = tested on: HOP-18
# OVCAR-8 = tested on: OVCAR-8
# SF-295 = tested on: SF-295
# SF-539 = tested on: SF-539
# K562 = tested on: K562
# OVCAR-5 = tested on: OVCAR-5
# CCRF-CEM = tested on: CCRF-CEM
# RXF 393 = tested on: RXF 393
# HCT-116 = tested on: HCT-116
# HOP-92 = tested on: HOP-92
# SR = tested on: SR
structure (smiles),measurement,setting,value
CC(=O)c1c(C)[n+]([O-])c2cc(C)c(C)cc2[n+]1[O-],GI50,HCC 2998,> 100 µM (inactive)
same,GI50,LXFL 529,> 100 µM (inactive)
same,GI50,SK-MEL-28,> 100 µM (inactive)
same,GI50,M19-MEL,> 100 µM (inactive)
same,GI50,KM-20L2,> 100 µM (inactive)
same,GI50,RXF 631,> 100 µM (inactive)
same,GI50,HL-60,> 100 µM (inactive)
same,GI50,HT-29,65.8 µM (inactive)
same,GI50,TK-10,> 100 µM (inactive)
same,GI50,NCI-H460,> 100 µM (inactive)
same,GI50,HCT-15,> 100 µM
same,GI50,Malme-3M,> 100 µM (inactive)
same,GI50,SF-268,> 100 µM (inactive)
same,GI50,EKVX,> 100 µM (inactive)
same,GI50,SK-MEL-2,> 100 µM (inactive)
same,GI50,OVCAR-3,> 100 µM (inactive)
same,GI50,U-251,> 100 µM (inactive)
same,GI50,SN12C,> 100 µM (inactive)
same,GI50,A498,> 100 µM (inactive)
same,GI50,NCI-H23,> 100 µM (inactive)
same,GI50,786-0,> 100 µM (inactive)
same,GI50,SNB-78,> 100 µM (inactive)
same,GI50,SNB-19,> 100 µM (inactive)
same,GI50,DLD-1,> 100 µM (inactive)
same,GI50,COLO 205,> 100 µM (inactive)
same,GI50,XF498,> 100 µM (inactive)
same,GI50,NCI-H226,> 100 µM (inactive)
same,GI50,KM12,> 100 µM (inactive)
same,GI50,UACC-257,> 100 µM (inactive)
same,GI50,UO-31,> 100 µM (inactive)
same,GI50,M14,> 100 µM (inactive)
same,GI50,DMS-273,> 100 µM (inactive)
same,GI50,MOLT-4,> 100 µM (inactive)
same,GI50,SNB-75,> 100 µM (inactive)
same,GI50,RPMI-8226,> 100 µM (inactive)
same,GI50,OVCAR-4,> 100 µM (inactive)
same,GI50,A549,> 100 µM (inactive)
same,GI50,DMS-114,> 100 µM (inactive)
same,GI50,IGROV-1,> 100 µM (inactive)
same,GI50,ACHN,> 100 µM (inactive)
same,GI50,CAKI-1,> 100 µM (inactive)
same,GI50,SK-OV-3,> 100 µM (inactive)
same,GI50,UACC-62,> 100 µM (inactive)
same,GI50,SK-MEL-5,> 100 µM (inactive)
same,GI50,LOX IMVI,> 100 µM (inactive)
same,GI50,HOP-62,> 100 µM (inactive)
same,GI50,SW-620,> 100 µM (inactive)
same,GI50,NCI-H522,> 100 µM (inactive)
same,GI50,HOP-18,> 100 µM (inactive)
same,GI50,OVCAR-8,> 100 µM (inactive)
same,GI50,SF-295,> 100 µM (inactive)
same,GI50,SF-539,> 100 µM (inactive)
same,GI50,K562,> 100 µM (inactive)
same,GI50,OVCAR-5,> 100 µM (inactive)
same,GI50,CCRF-CEM,> 100 µM (inactive)
CS(=O)(=O)N(N(CCCl)S(=O)(=O)c1ccccc1)S(C)(=O)=O,GI50,HCC 2998,> 100 µM (inactive)
same,GI50,LXFL 529,> 100 µM (inactive)
same,GI50,SK-MEL-28,> 100 µM (inactive)
same,GI50,M19-MEL,> 100 µM (inactive)
same,GI50,KM-20L2,> 100 µM (inactive)
same,GI50,RXF 631,> 100 µM (inactive)
same,GI50,HL-60,> 100 µM (inactive)
same,GI50,RXF 393,> 100 µM (inactive)
same,GI50,HT-29,> 100 µM (inactive)
same,GI50,TK-10,> 100 µM (inactive)
same,GI50,NCI-H460,86.1 µM (inactive)
same,GI50,HCT-15,> 100 µM
same,GI50,Malme-3M,> 100 µM (inactive)
same,GI50,SF-268,21.3 µM (inactive)
same,GI50,EKVX,> 100 µM (inactive)
same,GI50,SK-MEL-2,> 100 µM (inactive)
same,GI50,OVCAR-3,> 100 µM (inactive)
same,GI50,U-251,17.7 µM (inactive)
same,GI50,SN12C,> 100 µM (inactive)
same,GI50,NCI-H23,> 100 µM (inactive)
same,GI50,786-0,44.7 µM (inactive)
same,GI50,SNB-19,67.9 µM (inactive)
same,GI50,DLD-1,> 100 µM (inactive)
same,GI50,COLO 205,> 100 µM (inactive)
same,GI50,XF498,> 100 µM (inactive)
same,GI50,NCI-H226,> 100 µM (inactive)
same,GI50,KM12,> 100 µM (inactive)
same,GI50,UACC-257,> 100 µM (inactive)
same,GI50,UO-31,76.7 µM (inactive)
same,GI50,M14,> 100 µM (inactive)
same,GI50,DMS-273,> 100 µM (inactive)
same,GI50,MOLT-4,> 100 µM (inactive)
same,GI50,SNB-75,50.8 µM (inactive)
same,GI50,RPMI-8226,> 100 µM (inactive)
same,GI50,HCT-116,> 100 µM (inactive)
same,GI50,OVCAR-4,> 100 µM (inactive)
same,GI50,A549,> 100 µM (inactive)
same,GI50,ACHN,> 100 µM (inactive)
same,GI50,CAKI-1,> 100 µM (inactive)
same,GI50,HOP-92,> 100 µM (inactive)
same,GI50,UACC-62,> 100 µM (inactive)
same,GI50,SK-MEL-5,52.7 µM (inactive)
same,GI50,HOP-62,> 100 µM (inactive)
same,GI50,SW-620,> 100 µM (inactive)
same,GI50,NCI-H522,> 100 µM (inactive)
same,GI50,HOP-18,31 µM (inactive)
same,GI50,OVCAR-8,> 100 µM (inactive)
same,GI50,SF-295,88.9 µM (inactive)
same,GI50,SF-539,38.5 µM (inactive)
same,GI50,K562,> 100 µM (inactive)
same,GI50,CCRF-CEM,> 100 µM (inactive)
same,GI50,SR,> 100 µM (inactive)
CN1C(=O)C2C(C1=O)C1(O)c3ccccc3C2(N)c2ccccc21 (stereo not given),GI50,HCC 2998,> 100 µM (inactive)
same,GI50,SK-MEL-28,> 100 µM (inactive)
same,GI50,M19-MEL,> 100 µM (inactive)
same,GI50,RXF 631,> 100 µM (inactive)
same,GI50,HL-60,> 100 µM (inactive)
same,GI50,RXF 393,> 100 µM (inactive)
same,GI50,HT-29,> 100 µM (inactive)
same,GI50,TK-10,> 100 µM (inactive)
same,GI50,NCI-H460,> 100 µM (inactive)
same,GI50,HCT-15,> 100 µM
same,GI50,Malme-3M,> 100 µM (inactive)
same,GI50,SF-268,> 100 µM (inactive)
same,GI50,EKVX,> 100 µM (inactive)
same,GI50,SK-MEL-2,> 100 µM (inactive)
same,GI50,OVCAR-3,> 100 µM (inactive)
same,GI50,U-251,> 100 µM (inactive)
same,GI50,SN12C,> 100 µM (inactive)
same,GI50,A498,35.2 µM (inactive)
same,GI50,NCI-H23,> 100 µM (inactive)
same,GI50,786-0,> 100 µM (inactive)
same,GI50,SNB-78,> 100 µM (inactive)
same,GI50,SNB-19,> 100 µM (inactive)
same,GI50,DLD-1,> 100 µM (inactive)
same,GI50,COLO 205,> 100 µM (inactive)
same,GI50,NCI-H226,> 100 µM (inactive)
same,GI50,KM12,> 100 µM (inactive)
same,GI50,UACC-257,> 100 µM (inactive)
same,GI50,UO-31,> 100 µM (inactive)
same,GI50,M14,> 100 µM (inactive)
same,GI50,DMS-273,> 100 µM (inactive)
same,GI50,MOLT-4,> 100 µM (inactive)
same,GI50,SNB-75,> 100 µM (inactive)
same,GI50,HCT-116,> 100 µM (inactive)
same,GI50,OVCAR-4,> 100 µM (inactive)
same,GI50,A549,> 100 µM (inactive)
same,GI50,DMS-114,> 100 µM (inactive)
same,GI50,IGROV-1,> 100 µM (inactive)
same,GI50,ACHN,> 100 µM (inactive)
same,GI50,CAKI-1,> 100 µM (inactive)
same,GI50,HOP-92,> 100 µM (inactive)
same,GI50,SK-OV-3,> 100 µM (inactive)
same,GI50,UACC-62,> 100 µM (inactive)
same,GI50,SK-MEL-5,> 100 µM (inactive)
same,GI50,LOX IMVI,> 100 µM (inactive)
same,GI50,HOP-62,> 100 µM (inactive)
same,GI50,SW-620,> 100 µM (inactive)
same,GI50,HOP-18,> 100 µM (inactive)
same,GI50,OVCAR-8,> 100 µM (inactive)
same,GI50,SF-295,> 100 µM (inactive)
same,GI50,SF-539,> 100 µM (inactive)
same,GI50,K562,> 100 µM (inactive)
same,GI50,OVCAR-5,> 100 µM (inactive)
same,GI50,CCRF-CEM,> 100 µM (inactive)
